Values quoted from earlier work in patent US8197851B2, “Carotenoid composition and method for preparation thereof” (priority 2004, dated 2012).

Key:
[1] = levels as high as 800 mg
[2] = tested on: natural killer cell (NK) activity; conditions: elderly men
[3] = tested on: mouse epidermis (in vivo); conditions: topical
[4] = tested on: human epidermis (ex vivo); conditions: topical
[5] = tested on: UV light-suppressed immune function (DTH); conditions: young and elderly men
[6] = tested on: Gap Junctional Communication (GJC); conditions: independent of Vitamin A activity or antioxidant actions
[7] = tested on: cell surface molecules that initiate immune response; conditions: human trials
[8] = tested on: macular degeneration changes; conditions: 80 mg, versus placebo

In the case of `CC(=O)Oc1c(C)c(C)c2c(c1C)CC[C@@](C)(CCC[C@H](C)CCC[C@H](C)CCCC(C)C)O2` (racemic) [dl-alpha tocopheryl acetate], the adverse effects [1] is given as “No adverse effects”.

For `CC1=C(/C=C/C(C)=C/C=C/C(C)=C/C=C/C=C(C)/C=C/C=C(C)/C=C/C2=C(C)CCCC2(C)C)C(C)(C)CCC1` [beta-carotene], the “age related decline in natural killer cell (NK) activity” value [2] is listed as “Prevented age related decline in natural killer cell (NK) activity”, the “increase of epidermal retinyl esters” value [3] is listed as 3 fold and the “increase of epidermal retinyl esters” value [4] is listed as 10 fold. The “UV light-suppressed immune function (DTH)” value [5] was “Prevented UV light-suppressed immune function (DTH)”, the “increase of GJC” value [6] was “most potent in increasing GJC” and the “expression of cell surface molecules that initiate immune response” value [7] was “stimulated expression of cell surface molecules that initiate immune response”.

For `[Zn]` [zinc], the “retarding macular degeneration changes” value [8] is given as “significantly better than placebo”.
